Reference: PubChem BioAssay (NCI)
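Five compound concentrations were applied to cells in 96-well plates for 48 hours; endpoints were derived by simple linear interpolation of the resulting dose-response curve. TGI is the concentration that stops growth completely.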

How the values were obtained:
Assay in all cases: NCI-60 cell line screen, 48 h
[1] = test system: 786-0 renal
[2] = test system: HT29 colon
[3] = test system: MDA-MB-435
[4] = test system: NCI-H460 lung
[5] = test system: OVCAR-5 ovarian
[6] = test system: IGROV1 ovarian
[7] = test system: SF-295 CNS
[8] = test system: CAKI-1 renal
[9] = test system: SW-620 colon
[10] = test system: TK-10 renal
[11] = test system: A549 NSCLC
[12] = test system: SK-MEL-2 melanoma
[13] = test system: SR leukemia

CCOC(=O)Cc1nc2nn(Cc3ccccc3)cc2c(=O)[nH]1
TGI [1]: > 100 µM | TGI [2]: > 100 µM | TGI [3]: > 100 µM | TGI [4]: > 100 µM | TGI [5]: > 100 µM | TGI [6]: > 100 µM | TGI [7]: > 100 µM | TGI [8]: > 100 µM | TGI [9]: > 100 µM | TGI [10]: > 100 µM | TGI [11]: > 100 µM

CCOC(=O)C1=C(C)C2C3C(=O)NC(=O)C3C1(C)C1C(=O)NC(=O)C21 (configuration not stated)
TGI [1]: > 100 µM | TGI [2]: > 100 µM | TGI [4]: > 100 µM | TGI [6]: > 100 µM | TGI [12]: > 100 µM | TGI [7]: > 100 µM | TGI [9]: > 100 µM | TGI [10]: > 100 µM | TGI [11]: > 100 µM

Clc1ccc2c(Cl)ncnc2c1I
TGI [1]: > 100 µM | TGI [2]: > 100 µM | TGI [4]: > 100 µM | TGI [5]: > 100 µM | TGI [6]: > 100 µM | TGI [12]: > 100 µM | TGI [7]: > 100 µM | TGI [13]: > 100 µM | TGI [8]: > 100 µM | TGI [9]: > 100 µM | TGI [10]: > 100 µM | TGI [11]: > 100 µM

NC(=S)Nc1nnc(-c2ccc(-c3nnc(NC(N)=S)o3)cc2)o1
TGI [1]: > 100 µM | TGI [2]: > 100 µM | TGI [4]: > 100 µM | TGI [5]: > 100 µM | TGI [6]: > 100 µM | TGI [12]: > 100 µM | TGI [7]: > 100 µM | TGI [8]: > 100 µM | TGI [9]: > 100 µM | TGI [10]: > 100 µM | TGI [11]: > 100 µM

CC(=O)/C(=C/N1C(=O)CC(=O)NC1=S)C(=O)Nc1ccccc1C
TGI [1]: 50.8 µM | TGI [2]: 53.5 µM | TGI [3]: > 100 µM | TGI [4]: > 100 µM | TGI [5]: > 100 µM | TGI [6]: > 100 µM | TGI [12]: > 100 µM | TGI [7]: > 100 µM | TGI [8]: > 100 µM | TGI [9]: 93.9 µM | TGI [10]: > 100 µM | TGI [11]: > 100 µM

CC(C)(C)c1cc(N=NC(=S)NCc2ccccc2)cc(C(C)(C)C)c1O
TGI [1]: > 100 µM | TGI [2]: > 100 µM | TGI [4]: > 100 µM | TGI [6]: > 100 µM | TGI [12]: > 100 µM | TGI [7]: > 100 µM | TGI [13]: > 100 µM | TGI [9]: > 100 µM | TGI [10]: > 100 µM | TGI [11]: > 100 µM

Cn1c(=S)[nH]c2c(Cl)cc(Cl)cc2c1=O
TGI [1]: > 100 µM | TGI [3]: > 100 µM | TGI [4]: > 100 µM | TGI [5]: > 100 µM | TGI [6]: > 100 µM | TGI [12]: > 100 µM | TGI [7]: > 100 µM | TGI [8]: > 100 µM | TGI [9]: > 100 µM | TGI [10]: > 100 µM | TGI [11]: > 100 µM

C#CCOC(=O)C(N)CS (configuration not stated)
TGI [1]: > 100 µM | TGI [2]: > 100 µM | TGI [3]: > 100 µM | TGI [5]: > 100 µM | TGI [6]: > 100 µM | TGI [12]: > 100 µM | TGI [7]: > 100 µM | TGI [8]: > 100 µM | TGI [9]: > 100 µM | TGI [10]: > 100 µM | TGI [11]: > 100 µM

O=S(=O)([N-]c1nc2ccccc2nc1-[n+]1ccccc1)c1ccccc1
TGI [1]: > 100 µM | TGI [2]: > 100 µM | TGI [4]: > 100 µM | TGI [5]: > 100 µM | TGI [6]: > 100 µM | TGI [12]: > 100 µM | TGI [7]: > 100 µM | TGI [13]: 77.3 µM | TGI [8]: > 100 µM | TGI [10]: > 100 µM | TGI [11]: > 100 µM

C=C(CO)[C@H]1CC/C(C)=C/CC/C(C)=C/C/C=C(\C)[C@H](O)C1
TGI [1]: 57.5 µM | TGI [2]: 35 µM | TGI [3]: 35.8 µM | TGI [4]: 62.7 µM | TGI [5]: > 100 µM | TGI [6]: 36.1 µM | TGI [12]: 51.5 µM | TGI [7]: > 100 µM | TGI [8]: 75.1 µM | TGI [9]: 40.1 µM | TGI [10]: 47.7 µM | TGI [11]: > 100 µM

CC1C(c2ccccc2)=CCON1c1ccccc1 (configuration not stated)
TGI [1]: > 100 µM | TGI [2]: > 100 µM | TGI [4]: > 100 µM | TGI [5]: > 100 µM | TGI [6]: > 100 µM | TGI [12]: > 100 µM | TGI [7]: > 100 µM | TGI [13]: > 100 µM | TGI [8]: > 100 µM | TGI [9]: > 100 µM | TGI [11]: > 100 µM

BrC12C3C4C5C(C(C43)C13OCCO3)C52 (configuration not stated)
TGI [1]: > 100 µM | TGI [2]: > 100 µM | TGI [4]: > 100 µM | TGI [5]: > 100 µM | TGI [6]: > 100 µM | TGI [12]: > 100 µM | TGI [7]: > 100 µM | TGI [9]: > 100 µM | TGI [10]: > 100 µM | TGI [11]: > 100 µM

C=CCNC(NCC=C)=C(C(Cl)=C(Cl)Cl)[N+](=O)[O-]
TGI [1]: > 100 µM | TGI [2]: > 100 µM | TGI [3]: > 100 µM | TGI [4]: > 100 µM | TGI [5]: > 100 µM | TGI [12]: > 100 µM | TGI [7]: > 100 µM | TGI [8]: > 100 µM | TGI [9]: 55.7 µM | TGI [11]: > 100 µM

Cc1cccc(NC(=O)CSc2nnc(Cc3ccccc3)o2)c1
TGI [1]: > 100 µM | TGI [2]: > 100 µM | TGI [4]: > 100 µM | TGI [5]: > 100 µM | TGI [6]: > 100 µM | TGI [12]: > 100 µM | TGI [7]: > 100 µM | TGI [8]: > 100 µM | TGI [9]: > 100 µM | TGI [10]: > 100 µM | TGI [11]: > 100 µM

CC(C(O)c1ccccc1)N(C)/N=N/c1nc2c([nH]1)c(=O)n(C)c(=O)n2C (configuration not stated)
TGI [1]: > 100 µM | TGI [2]: > 100 µM | TGI [3]: > 100 µM | TGI [4]: > 100 µM | TGI [5]: > 100 µM | TGI [6]: > 100 µM | TGI [12]: > 100 µM | TGI [7]: > 100 µM | TGI [8]: > 100 µM | TGI [9]: > 100 µM | TGI [10]: > 100 µM | TGI [11]: > 100 µM

Nc1ccccc1C(=O)NNC(=O)c1ccccc1N
TGI [1]: > 100 µM | TGI [2]: > 100 µM | TGI [3]: > 100 µM | TGI [5]: > 100 µM | TGI [6]: > 100 µM | TGI [12]: > 100 µM | TGI [7]: > 100 µM | TGI [8]: > 100 µM | TGI [9]: > 100 µM | TGI [10]: > 100 µM | TGI [11]: > 100 µM

N=c1oc2cc(O)c(O)cc2cc1C(N)=O
TGI [1]: > 100 µM | TGI [2]: > 100 µM | TGI [4]: > 100 µM | TGI [5]: > 100 µM | TGI [6]: > 100 µM | TGI [12]: > 100 µM | TGI [7]: > 100 µM | TGI [8]: > 100 µM | TGI [9]: > 100 µM | TGI [10]: > 100 µM | TGI [11]: > 100 µM

O=C(CSc1nnc(-c2ccc(N=Cc3ccc(Cl)cc3)cc2)o1)Nc1ccccc1
TGI [1]: 47 µM | TGI [2]: > 100 µM | TGI [4]: > 100 µM | TGI [12]: > 100 µM | TGI [7]: > 100 µM | TGI [13]: > 100 µM | TGI [9]: > 100 µM | TGI [10]: > 100 µM | TGI [11]: > 100 µM

c1ccc2c(NCCCCCCCCNc3cccc4ccccc34)cccc2c1
TGI [1]: 57.1 µM | TGI [2]: > 100 µM | TGI [4]: 60.5 µM | TGI [5]: > 100 µM | TGI [6]: > 100 µM | TGI [12]: > 100 µM | TGI [7]: > 100 µM | TGI [8]: 35.8 µM | TGI [9]: 40 µM | TGI [10]: 43.6 µM | TGI [11]: > 100 µM

C=CCN1C(=O)N/C(=C\c2ccc(Cl)cc2)C1=O
TGI [1]: > 100 µM | TGI [2]: > 100 µM | TGI [3]: > 100 µM | TGI [4]: > 100 µM | TGI [5]: > 100 µM | TGI [6]: > 100 µM | TGI [7]: > 100 µM | TGI [8]: > 100 µM | TGI [9]: > 100 µM | TGI [10]: > 100 µM | TGI [11]: > 100 µM
